The values that follow come from ChEMBL document CHEMBL1201862, “PubChem BioAssay data set” (2004).

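How tested: cells in 96-well plates exposed to compound for 48 hours at five concentrations. GI50 is the concentration that inhibits growth by half.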 The source made the active and inactive calls. Cut-off read from the data, not from the text of the source: active = GI50 up to about 1.1 µM and inactive = higher. Bounds are passed on as bounds.

Test systems include NCI-H522; PC-3; ACHN; IGROV-1; HT-29; HCC 2998; UO-31; HCT-116; A498; OVCAR-4; UACC-257; Malme-3M; NCI-H23; HCT-15; SK-MEL-28; COLO 205; SK-OV-3; HL-60; HOP-62; OVCAR-8.
What all share (test): NCI tumour cell line growth inhibition, 48 h

As for `COc1ccccc1C1C2=C(COC2=O)Oc2cc3c(cc21)OCO3` (stereo not given), the GI50 with NCI-H522 is 0.619 µM (active); in the assay with PC-3, 2.12 µM (inactive); with ACHN, 14 µM (inactive); with IGROV-1, 2.53 µM (inactive); with HT-29, 1.65 µM (inactive); in the assay on HCC 2998, 3.23 µM (inactive). Moreover, the GI50 was 3.56 µM (inactive) in the assay with UO-31; 1.87 µM (inactive) in the assay with HCT-116; 2.23 µM (inactive) in the assay on A498; 11.7 µM (inactive) in the assay on OVCAR-4; 21.1 µM (inactive) with UACC-257; 14.1 µM (inactive) in the assay with Malme-3M. The GI50 in the assay with NCI-H23 is 3.22 µM (inactive); in the assay with HCT-15, 1.16 µM; in the assay with SK-MEL-28 it was 4.73 µM (inactive); in the assay with COLO 205, 1.78 µM (inactive); in the assay on SK-OV-3, 3.46 µM (inactive); with HL-60 it was 0.44 µM (active). The GI50 is 3.93 µM (inactive) in the assay with HOP-62 and 3.39 µM (inactive) with OVCAR-8.

Regarding `CCOC(=O)[C@H](O)[C@@H](O)C(=O)NCc1ccc(C(=O)c2ccccc2)cc1`, the GI50 with NCI-H522, with PC-3, in the assay with ACHN, in the assay with IGROV-1, in the assay with HT-29 and in the assay with HCC 2998 was > 100 µM (inactive) throughout. Further, the GI50 in the assay with UO-31, in the assay on HCT-116, in the assay on A498, in the assay with OVCAR-4, with UACC-257 and with Malme-3M was > 100 µM (inactive) throughout. For the same compound, the GI50 in the assay with NCI-H23 was > 100 µM (inactive); in the assay on HCT-15 it was greater than 100 µM; in the assay with SK-MEL-28, > 100 µM (inactive); with COLO 205 it was > 100 µM (inactive); in the assay with SK-OV-3, > 100 µM (inactive); with HL-60, > 100 µM (inactive). Moreover, the GI50 with HOP-62 and with OVCAR-8 was > 100 µM (inactive) each time.

Turning to `O=[N+]([O-])C(C(Cl)=C(Cl)Cl)=C(n1nnc2ccccc21)n1nnc2ccccc21`, the GI50 with NCI-H522 was 18.5 µM (inactive); in the assay with PC-3 it was 37.1 µM (inactive); with ACHN it was 25.6 µM (inactive); in the assay with IGROV-1, 36.6 µM (inactive); in the assay on HT-29, 26 µM (inactive); with HCC 2998 it was 49.1 µM (inactive). In addition, the GI50 in the assay on UO-31 was 25.6 µM (inactive); with HCT-116, 20.5 µM (inactive); in the assay on A498, > 57.9 µM (inactive); in the assay on OVCAR-4, 36.9 µM (inactive); with UACC-257 it was 48.9 µM (inactive); in the assay with Malme-3M, 21.7 µM (inactive). Further, the GI50 in the assay with NCI-H23 is 37.6 µM (inactive); in the assay with HCT-15 it was 25.9 µM; in the assay with SK-MEL-28 it was 23.5 µM (inactive); in the assay on COLO 205, 19.5 µM (inactive); with SK-OV-3, > 43.6 µM (inactive); in the assay on HL-60 it was 3.94 µM (inactive). For the same compound, the values for the GI50 with HOP-62 and in the assay with OVCAR-8 were 35.7 µM (inactive) and 21.5 µM (inactive), respectively.

Turning to `CC1(Cc2cc3c(cc2C2(c4ccc([N+](=O)[O-])cc4)OCCO2)OCO3)OCCO1`, the GI50 in the assay on NCI-H522 is 24.7 µM (inactive); in the assay on PC-3, 47.2 µM (inactive); with ACHN, 93.3 µM (inactive); in the assay on IGROV-1 it was 51.1 µM (inactive); with HT-29, > 100 µM (inactive); with HCC 2998, > 100 µM (inactive). Further, the GI50 in the assay with UO-31 was 34.3 µM (inactive); in the assay on HCT-116 it was > 100 µM (inactive); in the assay on A498, > 100 µM (inactive); in the assay on OVCAR-4, 50.2 µM (inactive); in the assay with UACC-257 it was 90.4 µM (inactive); with Malme-3M, > 100 µM (inactive). Moreover, the GI50 in the assay with NCI-H23 was 55.2 µM (inactive); in the assay on HCT-15, 51.1 µM; in the assay with SK-MEL-28, > 100 µM (inactive); with COLO 205, 67.6 µM (inactive); with SK-OV-3, > 100 µM (inactive); with HL-60, > 100 µM (inactive). Besides, the GI50 was > 100 µM (inactive) with HOP-62 and 59.2 µM (inactive) in the assay with OVCAR-8.

Regarding `COC(=O)C1(C)CC2C(C)(CCC3(C)C4=CC=C5C(=CC(=O)C(O)=C5C)C4(C)CCC23C)CC1O` (stereo not given), the GI50 is 0.2 µM (active) in the assay on NCI-H522; 1.13 µM (inactive) in the assay with PC-3; 0.45 µM (active) in the assay on ACHN; 0.331 µM (active) with IGROV-1; 0.634 µM (active) with HT-29; 1.56 µM (inactive) in the assay on HCC 2998. Besides, the GI50 is 1.35 µM (inactive) in the assay with UO-31; 0.564 µM (active) with HCT-116; 1.93 µM (inactive) in the assay with A498; 1.61 µM (inactive) in the assay on OVCAR-4; 1.72 µM (inactive) in the assay on UACC-257; 0.762 µM (active) in the assay with Malme-3M. Further, the GI50 in the assay with NCI-H23 was 2.05 µM (inactive); with HCT-15 it was 0.334 µM; in the assay with SK-MEL-28 it was 0.521 µM (active); with COLO 205 it was 0.627 µM (active); in the assay with SK-OV-3, 2.07 µM (inactive); with HL-60 it was 0.216 µM (active). Also, the results for the GI50 in the assay on HOP-62 and with OVCAR-8 were 1.86 µM (inactive) and 0.822 µM (active), respectively.
